Reference: patent EP1048659A1, “RETINOID RECEPTOR AGONISTS” (Institute of Medicinal Molecular Design, Inc., priority 1997, dated 1999)
Where “and” joins values, the source holds several entries; their conditions need not be identical. Equal entries are not always repeated.

System: Promyelocytic leukemia cell strain HL-60
Test: HL-60 cell differentiation induction (morphological change, NBT reduction), each compound alone and with coexisting retinoid Am80
Assay type: cell-based
Details: for Ratio of differentiation-induced cells with coexistence of 3×10^-9 Am80: Table 3; for Ratio of differentiation-induced cells with coexistence of 1×10^-9 Am80: Table 1; for Ratio of differentiation-induced cells with coexistence of 1×10^-10 Am80: Table 2; for effect on the activity of the coexisting Am80 at a high concentration: compound at 1×10^-6 M; for cell differentiation ability of the compound per se: compound used alone; for ratios of differentiated cells, Coexisting retinoid (concentration) Am80 (-9): compound fixed at 1×10^-6 M with Am80 (-9); for ratios of differentiated cells, Coexisting retinoid (concentration) Am80 (-9.5): compound fixed at 1×10^-6 M with Am80 (-9.5); for ratios of differentiated cells, Coexisting retinoid (concentration) Am80 (-10): compound fixed at 1×10^-6 M with Am80 (-10); for ratios of differentiated cells, Coexisting retinoid (concentration) None: compound fixed at 1×10^-6 M, alone
Method: Cell differentiation-inducing activity of each compound of the present invention used alone, and effect on cell differentiation-inducing activity of coexisting retinoid were examined. As a comparative or coexisting retinoid, Am80 ([4-[(5,6,7,8-tetrahydro-5,5,8,8-tetramethyl-2-naphthalenyl)carbamoyl]benzoic acid] was used. Promyelocytic leukemia cell strain HL-60 was used, and differentiation into granulocytic cells was determined by observing morphological change and measuring ability to reduce nitroblue tetrazolium (NBT). The ratios of differentiated cells shown in the following tables were calculated from the ability to reduce NBT. (A) Concentration-dependent differentiation-inducing ability of each compound alone and concentration-dependent effect on the differentiation-inducing ability of 1×10^-9 M Am80 were measured. […] Table 1 (B) Concentration-dependent differentiation-inducing ability of each compound alone and concentration-dependent effect on the differentiation inducing ability of 1×10^-10 M Am80 were measured. […] Table 2 (C) Concentration-dependent differentiation-inducing ability of each compound alone and concentration-dependent effect on the differentiation inducing ability of 3×10^-9 M Am80 were measured.

[1] = compound concentration -6, with 3×10^-9 M Am80
[2] = compound concentration -7, with 3×10^-9 M Am80
[3] = compound concentration -8, with 3×10^-9 M Am80
[4] = (B) 1×10^-10 M Am80, result in words
[5] = compound concentration -6, with 1×10^-10 M Am80
[6] = compound concentration -7, with 1×10^-10 M Am80
[7] = compound concentration -8, with 1×10^-10 M Am80
[8] = (A) 1×10^-9 M Am80, enhancement at a concentration which did not give the cell differentiation-inducing ability, result in words
[9] = compound concentration -6, with 1×10^-9 M Am80
[10] = compound concentration -7, with 1×10^-9 M Am80
[11] = compound concentration -8, with 1×10^-9 M Am80

For `CN(c1ccc(/C=C2\SC(=O)NC2=O)cc1)c1ccc2c(c1)C(C)(C)CCC2(C)C` [TZ325], the “Ratio of differentiation-induced cells with coexistence of 3×10^-9 Am80” value [1] was 79, the “Ratio of differentiation-induced cells with coexistence of 3×10^-9 Am80” value [2] was 83 and the “Ratio of differentiation-induced cells with coexistence of 3×10^-9 Am80” value [3] was 72.

For `CC1(C)CCC(C)(C)c2cc(NC(=O)c3ccc(C(=O)O)cc3)ccc21` [Am80, 4-[(5,6,7,8-tetrahydro-5,5,8,8-tetramethyl-2-naphthalenyl)carbamoyl]benzoic acid, reference compound], the “Ratio of differentiation-induced cells with coexistence of 1×10^-9 Am80” value (test compound concentration None: 1×10^-9 M Am80 alone, control) was 49% and 37% and 48%, the “Ratio of differentiation-induced cells with coexistence of 1×10^-10 Am80” value (test compound concentration None: 1×10^-10 M Am80 alone, control) was 4% and 11% and the “Ratio of differentiation-induced cells with coexistence of 3×10^-9 Am80” value (test compound concentration None: 3×10^-9 M Am80 alone, control) was 44 and 51. The “ratios of differentiated cells, Am80 (-9)” value (Table 4, Compound None: Am80 alone at -9) was 80, the “ratios of differentiated cells, Am80 (-9.5)” value (Table 4, Compound None: Am80 alone at -9.5) was 53 and the “ratios of differentiated cells, Am80 (-10)” value (Table 4, Compound None: Am80 alone at -10) was 8.5.

With `CN(C(=O)c1cc(C(C)(C)C)cc(C(C)(C)C)c1)c1ccc(/C=C2\SC(=O)NC2=O)cc1` [TZ161] the “effect on the activity of the coexisting Am80 at a high concentration” value [4] was “acted to suppress the activity”, the “effect on the activity of the coexisting Am80” value [4] was “enhanced the activity of the coexisting Am80” and the “Ratio of differentiation-induced cells with coexistence of 1×10^-10 Am80” value [5] was 3.8%. The “Ratio of differentiation-induced cells with coexistence of 1×10^-10 Am80” value [6] was 25%, the “Ratio of differentiation-induced cells with coexistence of 1×10^-10 Am80” value [7] was 12% and the “cell differentiation ability of the compound per se” value (result in words) was “inactive”.

In the case of `Cc1cc2c(cc1C(=O)c1cccc(/C=C3\SC(=O)NC3=O)c1)C(C)(C)CCC2(C)C` [TZ227], the “ratios of differentiated cells, Coexisting retinoid (concentration) Am80 (-9)” value (Table 4) is reported as 11.7, the “ratios of differentiated cells, Coexisting retinoid (concentration) Am80 (-9.5)” value (Table 4) is reported as 5.5 and the “ratios of differentiated cells, Coexisting retinoid (concentration) Am80 (-10)” value (Table 4) is reported as 7. For the same molecule, the “ratios of differentiated cells, Coexisting retinoid (concentration) None” value (Table 4) was 5.3.

With `C=C(c1ccc(/C=C2\SC(=O)NC2=O)cc1)c1cc2c(cc1C)C(C)(C)CCC2(C)C` [TZ245] the “Ratio of differentiation-induced cells with coexistence of 3×10^-9 Am80” value [1] was 88, the “Ratio of differentiation-induced cells with coexistence of 3×10^-9 Am80” value [2] was 89 and the “Ratio of differentiation-induced cells with coexistence of 3×10^-9 Am80” value [3] was 86.

For `C=C(c1ccc(/C=C2\SC(=O)NC2=O)cc1)c1ccc2c(c1)C(C)(C)CCC2(C)C` [TZ241], the “Ratio of differentiation-induced cells with coexistence of 3×10^-9 Am80” value [1] was 92, the “Ratio of differentiation-induced cells with coexistence of 3×10^-9 Am80” value [2] was 84 and the “Ratio of differentiation-induced cells with coexistence of 3×10^-9 Am80” value [3] was 76.

With `CN1c2ccccc2N=C(c2ccc(/C=C3\SC(=O)NC3=O)cc2)c2cc3c(cc21)C(C)(C)CCC3(C)C` [TZ201] the “effect on the activity of the coexisting Am80” value [8] was “suppressed the activity of the coexisting Am80”, the “Ratio of differentiation-induced cells with coexistence of 1×10^-9 Am80” value [9] was 5% and the “Ratio of differentiation-induced cells with coexistence of 1×10^-9 Am80” value [10] was 53%. The “Ratio of differentiation-induced cells with coexistence of 1×10^-9 Am80” value [11] was 64% and the “cell differentiation ability of the compound per se” value (result in words) was “inactive”.

`C=C(c1cccc(/C=C2\SC(=O)NC2=O)c1)c1cc2c(cc1C)C(C)(C)CCC2(C)C` [TZ247] was tested, and the “ratios of differentiated cells, Coexisting retinoid (concentration) Am80 (-9)” value (Table 4) was 10, the “ratios of differentiated cells, Coexisting retinoid (concentration) Am80 (-9.5)” value (Table 4) was 5.8 and the “ratios of differentiated cells, Coexisting retinoid (concentration) Am80 (-10)” value (Table 4) was 6.4. For the same molecule, the “ratios of differentiated cells, Coexisting retinoid (concentration) None” value (Table 4) was 7.

In the case of `CC1(C)CCC(C)(C)c2cc(Nc3ccc(/C=C4\SC(=O)NC4=O)cc3)ccc21` [TZ321], the “Ratio of differentiation-induced cells with coexistence of 3×10^-9 Am80” value [1] is reported as 88, the “Ratio of differentiation-induced cells with coexistence of 3×10^-9 Am80” value [2] is reported as 83 and the “Ratio of differentiation-induced cells with coexistence of 3×10^-9 Am80” value [3] is reported as 55.

With `O=C1NC(=O)/C(=C/c2cccc(C(=O)NCc3ccc(C(F)(F)F)cc3)c2)S1` [TZ105, reference compound] the “effect on the activity of the coexisting retinoid Am80” value ((E) comparison N-benzyl derivative, concentrations not given, result in words) was “failed to effect the activity of the coexisting retinoid Am80” and the “cell differentiation ability of the compound per se” value (result in words) was “completely inactive”.

`CN(C(=O)c1ccc2c(c1)C(C)(C)CCC2(C)C)c1ccc(/C=C2\SC(=O)NC2=O)cc1` [TZ191] was tested, and the “effect on the activity of the coexisting Am80 at a high concentration” value [4] was “acted to suppress the activity”, the “effect on the activity of the coexisting Am80” value [4] was “enhanced the activity of the coexisting Am80” and the “Ratio of differentiation-induced cells with coexistence of 1×10^-10 Am80” value [5] was 28%. For the same molecule, the “Ratio of differentiation-induced cells with coexistence of 1×10^-10 Am80” value [6] was 75%, the “Ratio of differentiation-induced cells with coexistence of 1×10^-10 Am80” value [7] was 63% and the “cell differentiation ability of the compound per se” value (result in words) was “inactive”.

For `CC1(C)CCC(C)(C)c2cc(C(=O)c3ccc(/C=C4\SC(=O)NC4=O)cc3)ccc21` [TZ221], the “Ratio of differentiation-induced cells with coexistence of 3×10^-9 Am80” value [1] was 82, the “Ratio of differentiation-induced cells with coexistence of 3×10^-9 Am80” value [2] was 67 and the “Ratio of differentiation-induced cells with coexistence of 3×10^-9 Am80” value [3] was 54.

In the case of `C=C(c1cccc(/C=C2\SC(=O)NC2=O)c1)c1ccc2c(c1)C(C)(C)CCC2(C)C` [TZ243], the “ratios of differentiated cells, Coexisting retinoid (concentration) Am80 (-9)” value (Table 4) is reported as 77, the “ratios of differentiated cells, Coexisting retinoid (concentration) Am80 (-9.5)” value (Table 4) is reported as 35 and the “ratios of differentiated cells, Coexisting retinoid (concentration) Am80 (-10)” value (Table 4) is reported as 5. The “ratios of differentiated cells, Coexisting retinoid (concentration) None” value (Table 4) was 4.2.

With `CC(C)(C)c1cc(C(=O)Nc2ccc(/C=C3\SC(=O)NC3=O)cc2)cc(C(C)(C)C)c1` [TZ151] the “effect on the activity of the coexisting Am80” value [4] was “enhanced the activity of the coexisting Am80”, the “Ratio of differentiation-induced cells with coexistence of 1×10^-10 Am80” value [5] was 83% and the “Ratio of differentiation-induced cells with coexistence of 1×10^-10 Am80” value [6] was 43%. The “Ratio of differentiation-induced cells with coexistence of 1×10^-10 Am80” value [7] was 12% and the “cell differentiation ability of the compound per se” value (result in words) was “had cell differentiation ability”.

With `CC1(C)CCC(C)(C)c2cc(C(=O)Nc3ccc(/C=C4\SC(=O)NC4=O)cc3)ccc21` [TZ181] the “effect on the activity of the coexisting Am80” value [8] was “enhanced the activity of the coexisting Am80”, the “Ratio of differentiation-induced cells with coexistence of 1×10^-9 Am80” value [9] was 6% and the “Ratio of differentiation-induced cells with coexistence of 1×10^-9 Am80” value [10] was 58%. The “Ratio of differentiation-induced cells with coexistence of 1×10^-9 Am80” value [11] was 53% and the “cell differentiation ability of the compound per se” value (result in words) was “had cell differentiation ability”.

In the case of `C/C(=C\c1ccc(/C=C2\SC(=O)NC2=O)cc1)c1ccc2c(c1)C(C)(C)CCC2(C)C` [TZ91], the “effect on the activity of the coexisting Am80” value [8] is reported as “enhanced the activity of the coexisting Am80”, the “Ratio of differentiation-induced cells with coexistence of 1×10^-9 Am80” value [10] is reported as 87% and the “Ratio of differentiation-induced cells with coexistence of 1×10^-9 Am80” value [11] is reported as 62%. For the same molecule, the “Ratio of differentiation-induced cells with coexistence of 1×10^-9 Am80” value (compound concentration -9, with 1×10^-9 M Am80) was 58% and the “cell differentiation ability of the compound per se” value (result in words) was “had cell differentiation ability”.

`CC1(C)CCC(C)(C)c2cc(C(=O)c3cccc(/C=C4\SC(=O)NC4=O)c3)ccc21` [TZ223] was tested, and the “ratios of differentiated cells, Coexisting retinoid (concentration) Am80 (-9)” value (Table 4) was 62, the “ratios of differentiated cells, Coexisting retinoid (concentration) Am80 (-9.5)” value (Table 4) was 22 and the “ratios of differentiated cells, Coexisting retinoid (concentration) Am80 (-10)” value (Table 4) was 5. For the same molecule, the “ratios of differentiated cells, Coexisting retinoid (concentration) None” value (Table 4) was 4.4.
